Target: T1, IN-GCN2 interaction (UniProt P04585+Q9P2K8)
T1 construct: active truncated version of the human protein (192-1024); Recombinant full-length HIV-1 IN was produced in-house; purchased SignalChem (GCN2); IN made in-house in E. coli BL21(DE3)pLysS E12-11G; host or cells: BL21(DE3)pLysS for IN
Test: biochemical
Type: binding, HIV-1 IN; human GCN2
Settings: read-out: inhibition of the IN-GCN2 interaction at 100 µM
Description: The interaction between IN and GCN2 was monitored using the AlphaLISA technology (Revvity). The reaction was performed in a shallow-well 384-well microplate (Revvity, AlphaPlate-384SW, ProxiPlate) with 24 nM GST-GCN2, 700 nM 6xHis-IN, 10 µg/mL of nickel chelate acceptor beads and glutathione donor beads, the test compound or an equivalent amount of DMSO (solvent at 10 % final concentration) in a buffer composed of 50 mM Tris-HCl pH 7.5, 1 mM DTT, 0.05% Tween 20, 0.1% bovine serum albumin (BSA) and 40 mM NaCl (final volume 15µl). First, the reaction was initiated by adding the various components except the donor beads. After 20 minutes at room temperature, the donor beads were added and the plate sealed. Data acquisition was performed 120 minutes later using a Victor Nivo Multimode Plate Reader (Revvity). Means, standard deviations and graphical representation were generated using Prism 8.4.3 software (GraphPad).
420 molecules from the National Cancer Institute Developmental Therapeutics Program (NCI DTP) were screened as modulators of the IN-GCN2 interaction in vitro. […] Experiments were conducted onto two separate AlphaPlates 384-shallow well, with 180 and 240 molecules respectively and 12 DMSO control each.

T1 sequence (Q9P2K8 192-1024, other chains not shown): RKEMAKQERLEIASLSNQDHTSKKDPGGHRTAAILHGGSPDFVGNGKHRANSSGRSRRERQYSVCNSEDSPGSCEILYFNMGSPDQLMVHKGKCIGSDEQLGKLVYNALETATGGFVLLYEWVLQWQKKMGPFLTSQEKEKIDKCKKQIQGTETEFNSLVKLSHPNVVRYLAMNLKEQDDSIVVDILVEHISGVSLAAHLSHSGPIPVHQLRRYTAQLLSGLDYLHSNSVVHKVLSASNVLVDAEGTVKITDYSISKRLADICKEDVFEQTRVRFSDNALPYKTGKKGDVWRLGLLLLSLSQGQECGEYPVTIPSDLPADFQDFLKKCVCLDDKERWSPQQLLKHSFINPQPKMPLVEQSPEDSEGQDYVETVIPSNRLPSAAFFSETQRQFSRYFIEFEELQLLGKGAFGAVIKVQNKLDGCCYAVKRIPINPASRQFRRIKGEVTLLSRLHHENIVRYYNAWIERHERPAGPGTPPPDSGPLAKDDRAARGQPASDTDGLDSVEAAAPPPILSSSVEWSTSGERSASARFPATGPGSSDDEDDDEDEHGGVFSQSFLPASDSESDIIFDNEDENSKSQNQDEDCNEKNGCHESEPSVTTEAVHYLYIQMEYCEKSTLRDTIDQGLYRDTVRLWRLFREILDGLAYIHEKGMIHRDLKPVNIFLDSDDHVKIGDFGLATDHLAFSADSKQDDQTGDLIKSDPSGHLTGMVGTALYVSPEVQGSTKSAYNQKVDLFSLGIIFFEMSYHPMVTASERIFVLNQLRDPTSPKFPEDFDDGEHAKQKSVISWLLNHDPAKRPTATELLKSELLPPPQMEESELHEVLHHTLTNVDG

SMILES | inhibition at 100 µM
COc1cc2c(cc1OC)c1c(OC)c(OC)cc3c1c1c2sc(=S)n1CC3 [III-3a, 7,8,10,11-Tetramethoxy-4,5-dihydrodibenzo[de,g]-[1,3]thiazolo[5,4,3-ij]quinoline-2-thione] | ~80%
CCOC(=O)N1CCc2cc(OC)c(OC)c3c2c1cc1cc(OC)c(OC)cc13 [III-3d, Dibenzo[de,g]quinoline-6-carboxylic acid, 4,5-dihydro-1,2,9,10-tetramethoxy-, ethyl ester] | ~55%

— EP4789664A1, “NOVEL ANTI[…] AND USES THEREOF” (priority 2025, dated 2026)
